Experimental findings from PubChem BioAssay (NCI) are described below.

Each structure is given as a SMILES string.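 A five-concentration, 48-hour dose response in 96-well plates underlies each endpoint, interpolated linearly between surrounding concentrations. Abbreviation: GI50, concentration required for 50% inhibition of growth. TGI: total growth inhibition.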

Test systems include LOX IMVI melanoma; TK-10 renal; HCC-2998 colon; BT-549 breast; MCF7 breast; NCI-H522 lung; A498 renal; NCI-H23 lung; HT29 colon; SF-539 CNS.
What all share (experiment): growth of human tumour cells (NCI), 48 h

As for `CCN1C(=O)N(CC)C2C1NN=c1s/c(=C3\C(=O)Nc4ccccc43)c(=O)n12` (configuration not stated), the GI50 in the assay with LOX IMVI melanoma is 0.625 µM; in the assay with TK-10 renal, 9.37 µM; with HCC-2998 colon, 1.47 µM; in the assay on BT-549 breast, 1.06 µM; in the assay with MCF7 breast, 0.354 µM; in the assay with NCI-H522 lung, 0.373 µM. Further, the GI50 with A498 renal is 0.193 µM; with NCI-H23 lung it was 0.752 µM; in the assay on HT29 colon, 0.374 µM; in the assay on SF-539 CNS, 0.309 µM. Besides, the TGI was 29.2 µM in the assay on LOX IMVI melanoma; 32.6 µM in the assay with TK-10 renal; 31.7 µM in the assay on HCC-2998 colon; 32.3 µM in the assay on BT-549 breast; above 89.7 µM in the assay with MCF7 breast; above 43.6 µM with NCI-H522 lung. Further, the TGI is 0.728 µM in the assay on A498 renal, 24 µM with NCI-H23 lung, above 100 µM in the assay on HT29 colon and 1.7 µM in the assay with SF-539 CNS.
On to `N[C@H]1CCC[C@@H](O)C1O` (some centres not stated), for which the TGI in the assay with LOX IMVI melanoma, in the assay on HCC-2998 colon, in the assay on BT-549 breast, in the assay on MCF7 breast, in the assay with NCI-H522 lung and in the assay on A498 renal was above 100 µM each time. Moreover, the TGI in the assay with NCI-H23 lung, with HT29 colon and with SF-539 CNS was above 100 µM throughout.
As to `O=C1c2ccccc2C(=O)c2c1ccc1conc21`, the TGI in the assay with LOX IMVI melanoma stood at 1.78 µM; in the assay with TK-10 renal it was 15.3 µM; in the assay with HCC-2998 colon, 29.8 µM; in the assay with BT-549 breast, 3.68 µM; in the assay with MCF7 breast it was 2.65 µM; in the assay on NCI-H522 lung, 3.44 µM. The TGI with A498 renal was found to be 24.3 µM; in the assay with NCI-H23 lung, 3.3 µM; with HT29 colon, 13 µM; in the assay on SF-539 CNS, 3.87 µM.
In the case of `CN(C)S(=O)(=O)c1cccc(C(=O)Nc2nc(-c3ccc(F)c(F)c3)cs2)c1`, the GI50 was 24 µM in the assay with LOX IMVI melanoma; 18.1 µM in the assay with TK-10 renal; 58.9 µM with HCC-2998 colon; 3.88 µM in the assay on BT-549 breast; 6.01 µM in the assay with MCF7 breast; 5.71 µM in the assay on NCI-H522 lung. For the same compound, the GI50 was 16.9 µM in the assay on A498 renal, 10.3 µM with NCI-H23 lung, 14 µM in the assay on HT29 colon and 15.3 µM in the assay with SF-539 CNS. In addition, the TGI in the assay on LOX IMVI melanoma is above 100 µM; in the assay with TK-10 renal, above 100 µM; in the assay with HCC-2998 colon it was above 100 µM; with BT-549 breast, above 27.4 µM; in the assay on MCF7 breast, above 65 µM; with NCI-H522 lung, above 100 µM. Further, the TGI in the assay with A498 renal was above 100 µM; in the assay on NCI-H23 lung, above 100 µM; in the assay with HT29 colon, above 100 µM; in the assay on SF-539 CNS it was 58 µM.
`Nc1[nH]nc(Nc2ccccc2)c1-c1nc2ccccc2s1`: the GI50 in the assay with LOX IMVI melanoma was 1.59 µM; in the assay with TK-10 renal it was 3.02 µM; in the assay on HCC-2998 colon, 1.88 µM; in the assay on BT-549 breast it was 1.52 µM; in the assay with MCF7 breast it was 2.26 µM; with NCI-H522 lung, 1.58 µM. Moreover, the GI50 in the assay with A498 renal is 1.69 µM; with NCI-H23 lung it was 1.73 µM; in the assay on HT29 colon, 3.39 µM; in the assay with SF-539 CNS, 1.68 µM. In addition, the TGI amounted to 2.97 µM in the assay with LOX IMVI melanoma; 9.1 µM with TK-10 renal; 4.21 µM with HCC-2998 colon; 3.34 µM in the assay on BT-549 breast; 8.68 µM in the assay on MCF7 breast; 3.63 µM in the assay with NCI-H522 lung. In addition, the TGI with A498 renal amounted to 4.01 µM; in the assay on NCI-H23 lung, 5.04 µM; with HT29 colon, 11.5 µM; with SF-539 CNS it was 3.34 µM.
Consider `O=C1c2ccccc2C(=O)N1c1ccc(Cc2ccc(N3C(=O)c4ccccc4C3=O)cc2)cc1`, for which the TGI in the assay with LOX IMVI melanoma, with TK-10 renal, in the assay on HCC-2998 colon, in the assay on BT-549 breast, in the assay with MCF7 breast and in the assay on NCI-H522 lung was above 100 µM each time. Besides, the TGI with A498 renal, in the assay with NCI-H23 lung, in the assay with HT29 colon and in the assay with SF-539 CNS was above 100 µM in each case.
For the compound `COc1ccc([N+](=O)[O-])c2c(NCCCN(C)C)c(C)c(C)nc12`, the TGI in the assay with LOX IMVI melanoma, in the assay with TK-10 renal, with HCC-2998 colon, with BT-549 breast, in the assay with MCF7 breast and in the assay on NCI-H522 lung was above 100 µM in each case. Besides, the TGI in the assay on A498 renal, in the assay with NCI-H23 lung, in the assay with HT29 colon and in the assay on SF-539 CNS was above 100 µM each time.
`CCCC(=O)Oc1ccc(/C(=C(\C)c2ccc(Cl)cc2)c2ccc(OCCN(CC)CC)cc2)cc1`: the GI50 was 1.85 µM in the assay on LOX IMVI melanoma; 5.29 µM in the assay with TK-10 renal; 2.67 µM in the assay with HCC-2998 colon; 4.85 µM in the assay on BT-549 breast; 0.117 µM with MCF7 breast; 12.9 µM in the assay on NCI-H522 lung. Besides, the GI50 was 3.69 µM in the assay on NCI-H23 lung, 1.85 µM in the assay on HT29 colon and 1.94 µM in the assay on SF-539 CNS. Further, the TGI in the assay on LOX IMVI melanoma is 3.4 µM; in the assay on TK-10 renal it was 20.7 µM; in the assay on HCC-2998 colon, 7.06 µM; in the assay with BT-549 breast, 18.9 µM; in the assay with MCF7 breast it was 3.47 µM; with NCI-H522 lung, 29.5 µM. For the same compound, the TGI was found to be 15.6 µM in the assay with NCI-H23 lung, 4.06 µM in the assay with HT29 colon and 3.98 µM with SF-539 CNS.
Regarding `COc1ccc(-n2nc(C)c3c(Nc4ccc(NC(=O)Nc5cccc(C(F)(F)F)c5)cc4)ncnc32)cc1`, the GI50 with LOX IMVI melanoma was 1.3 µM; in the assay with TK-10 renal it was 2.39 µM; with HCC-2998 colon it was 2.24 µM; in the assay on BT-549 breast it was 1.97 µM; in the assay on MCF7 breast it was 2.05 µM; with NCI-H522 lung, 1.6 µM. Further, the GI50 was 1.99 µM in the assay on A498 renal, 1.68 µM with NCI-H23 lung, 1.77 µM with HT29 colon and 1.28 µM in the assay on SF-539 CNS. Further, the TGI in the assay on LOX IMVI melanoma was 2.65 µM; in the assay on TK-10 renal, 6.6 µM; in the assay with HCC-2998 colon it was 5.31 µM; with BT-549 breast, 5.32 µM; with MCF7 breast, 5.57 µM; in the assay with NCI-H522 lung, 3.8 µM. In addition, the TGI in the assay on A498 renal was determined as 4.45 µM; in the assay on NCI-H23 lung, 3.68 µM; in the assay with HT29 colon, 3.96 µM; in the assay with SF-539 CNS, 2.66 µM.
